# Test results taken from patent US5892029A, “3-hydroxy-2(1H)-pyridinone chelating agents” (priority 1997, dated 1999).
# Where two headings read alike, the source gives them in different places.
# Experiments:
# [1] = Liquid/liquid extraction of Pu(IV) from aqueous solution (Tables 7 and 8)
# Description: Liquid/liquid extractions were performed with the radioactive plutonium isotope ^242 Pu at the Lawrence Livermore National Laboratory's Glenn T. Seaborg Institute for Transactinium Science, Livermore, Calif. The aqueous phase contained ^242 Pu, while the organic phases contained 3,2-HOPO ligands at 2-5 mM concentration. Kinetic studies were the primary method used to determine the efficacy of the specific ligand in organic solvent. Generally, five microcentrifuge tubes were prepared with the same organic and aqueous phases, and shaken with a vortex-style mixer for 1, 5, 10, and 20 minutes. After mixing, an aliquot of each phase was pipetted from the tube into a scintillation vial, mixed with a scintillation cocktail, and scintillation counted to determine the amount of the radioactive species present in each phase after extraction.
# [2] = 30 μmol/kg i.p. at 1 h; reported previously (footnote e); cited from earlier work
# [3] = type: in vivo, mice
# Description: The test of acute toxicity of these novel ligands was carried out as follows. […] The ligand was dissolved in 0.5 to 1.0 ml of saline at pH 7 to 8. After a period of observation, the mice were killed, selected tissues were removed and fixed for histopathological examination,and unusual findings at autopsy were recorded.
# [4] = octanol, 0.10M aqueous, 1.0 min
# [5] = octanol, 0.10M aqueous, 5.0 min
# [6] = octanol, 0.10M aqueous, 10.0 min
# [7] = octanol, 0.10M aqueous, 20.0 min
# [8] = octanol, 5.0M aqueous, 10.0 min
# [9] = octanol, 5.0M aqueous, 20.0 min
# [10] = protocol IA: 100 μmol/kg × 2 daily, 3 d, mean ± SD
# [11] = protocol IA: 100 μmol/kg × 2 daily, 11 d, mean ± SD
# [12] = protocol IA: 100 μmol/kg × 2 daily, 6 d, two moribund mice autopsied on d 3
# [13] = protocol I: 100 μmol/kg × 10 daily i.p., 11 d, mean ± SD
# [14] = protocol I: 100 μmol/kg × 10 daily i.p., 21 d, mean ± SD
# [15] = protocol II: 500 μmol/kg × 2 in 8 h i.p., 8 d, mean ± SD
smiles,measurement,setting,value
CCCCCCCCNC(=O)c1ccn(C)c(=O)c1O [Me-2-HOPO-Octylamide],% Pu(IV) Extracted,"[1]; MIBK, 0.10M aqueous, 1.0 min",95.6 ± 4.4%
same,Partition Coefficient,"[1]; MIBK, 0.10M aqueous, 1.0 min",21.90 ± 1.09
same,% Pu(IV) Extracted,"[1]; MIBK, 0.10M aqueous, 5.0 min",91.8 ± 4.3%
same,Partition Coefficient,"[1]; MIBK, 0.10M aqueous, 5.0 min",11.22 ± 0.73
same,% Pu(IV) Extracted,"[1]; MIBK, 0.10M aqueous, 10.0 min",96.8 ± 4.5%
same,Partition Coefficient,"[1]; MIBK, 0.10M aqueous, 10.0 min",30.07 ± 1.26
same,% Pu(IV) Extracted,"[1]; MIBK, 0.10M aqueous, 20.0 min",96.5 ± 4.5%
same,Partition Coefficient,"[1]; MIBK, 0.10M aqueous, 20.0 min",27.56 ± 0.76
same,% Pu(IV) Extracted,"[1]; MIBK, 5.0M aqueous, 1.0 min",98.8 ± 4.6%
same,Partition Coefficient,"[1]; MIBK, 5.0M aqueous, 1.0 min",79.22 ± 1.71
same,% Pu(IV) Extracted,"[1]; MIBK, 5.0M aqueous, 5.0 min",98.2 ± 4.6%
same,Partition Coefficient,"[1]; MIBK, 5.0M aqueous, 5.0 min",53.99 ± 1.54
same,% Pu(IV) Extracted,"[1]; MIBK, 5.0M aqueous, 10.0 min",96.4 ± 4.5%
same,Partition Coefficient,"[1]; MIBK, 5.0M aqueous, 10.0 min",26.82 ± 1.18
same,% Pu(IV) Extracted,"[1]; MIBK, 5.0M aqueous, 20.0 min",83.9 ± 3.9%
same,Partition Coefficient,"[1]; MIBK, 5.0M aqueous, 20.0 min",5.20 ± 0.40
same,% Pu(IV) Extracted,[1]; [4],94.4 ± 4.4%
same,Partition Coefficient,[1]; [4],16.83 ± 0.89
same,% Pu(IV) Extracted,[1]; [5],94.5 ± 4.5%
same,Partition Coefficient,[1]; [5],17.10 ± 1.12
same,% Pu(IV) Extracted,[1]; [6],92.1 ± 4.3%
same,Partition Coefficient,[1]; [6],11.71 ± 0.72
same,% Pu(IV) Extracted,[1]; [7],91.2 ± 4.2%
same,Partition Coefficient,[1]; [7],10.32 ± 0.67
same,% Pu(IV) Extracted,"[1]; octanol, 5.0M aqueous, 1.0 min",97.8 ± 4.1%
same,Partition Coefficient,"[1]; octanol, 5.0M aqueous, 1.0 min",44.22 ± 1.43
same,% Pu(IV) Extracted,"[1]; octanol, 5.0M aqueous, 5.0 min",97.4 ± 4.5%
same,Partition Coefficient,"[1]; octanol, 5.0M aqueous, 5.0 min",36.91 ± 1.30
same,% Pu(IV) Extracted,[1]; [8],95.2 ± 4.4%
same,Partition Coefficient,[1]; [8],19.78 ± 0.98
same,% Pu(IV) Extracted,[1]; [9],91.4 ± 4.3%
same,Partition Coefficient,[1]; [9],10.69 ± 0.67
"O=C(NCc1cc(CNC(=O)c2cccc(=O)n2O)cc(CNC(=O)c2cccc(=O)n2O)c1)c1cccc(=O)n1O [ME-(1,2-HOPO)]",238Pu excreta: feces and GI contents,[2],43% of injected ^238 Pu
same,238Pu excreta: urine 0-24 h,[2],9.6% of injected ^238 Pu
same,238Pu in kidneys at 24 h,[2],1.8% of injected ^238 Pu
same,238Pu in liver at 24 h,[2],18 ± 6.3% of injected ^238 Pu
same,238Pu in skeleton at 24 h,[2],17 ± 2.5% of injected ^238 Pu
same,238Pu in soft tissue at 24 h,[2],10 ± 1.8% of injected ^238 Pu
same,238Pu in whole body at 24 h,[2],47 ± 9.4% of injected ^238 Pu
"CC(=O)N(O)CCCCCNC(=O)CCC(=O)N(O)CCCCCNC(=O)CCC(=O)N(O)CCCCCNC(=O)c1ccn(C)c(=O)c1O [DFO-Me-3,2-HOPO]",238Pu excreta: feces and GI contents,[2],26.4% of injected ^238 Pu
same,238Pu excreta: urine 0-24 h,[2],21% of injected ^238 Pu
same,238Pu in kidneys at 24 h,[2],3.0% of injected ^238 Pu
same,238Pu in liver at 24 h,[2],13 ± 3.5% of injected ^238 Pu
same,238Pu in skeleton at 24 h,[2],17 ± 2.4% of injected ^238 Pu
same,238Pu in soft tissue at 24 h,[2],19 ± 3.0% of injected ^238 Pu
same,238Pu in whole body at 24 h,[2],53 ± 3.4% of injected ^238 Pu
"Cn1ccc(C(=O)NCCCCCCNC(=O)c2ccn(C)c(=O)c2O)c(O)c1=O [6-LI-Me-3,2-HOPO, 1,6-bis[(3-hydroxy-1-methyl-2-oxo-1,2-dihydropyridin-4-yl)carboxamido]hexane]",body weight,[3]; [10],83 ± 3 percent control
same,kidney weight,[3]; [10],132 ± 11 percent control
same,plasma urea N,[3]; [10],343 ± 140 percent control
same,no. of survivors,"[3]; protocol IA: 100 μmol/kg × 2 daily, 3 d, of 5 mice",5
same,body weight,[3]; [11],101 ± 5 percent control
same,kidney weight,[3]; [11],112 ± 13 percent control
same,plasma urea N,[3]; [11],92 ± 6 percent control
same,no. of survivors,"[3]; protocol IA: 100 μmol/kg × 2 daily, 11 d, of 5 mice",3
"CC(=O)N(O)CCCCCNC(=O)CCC(=O)N(O)CCCCCNC(=O)CCC(=O)N(O)CCCCCN [DFO, desferrioxamine B]",238Pu excreta: feces and GI contents,[2],15.1% of injected ^238 Pu
same,238Pu excreta: urine 0-24 h,[2],38% of injected ^238 Pu
same,238Pu in kidneys at 24 h,[2],1.8% of injected ^238 Pu
same,238Pu in liver at 24 h,[2],19 ± 13% of injected ^238 Pu
same,238Pu in skeleton at 24 h,[2],20 ± 11% of injected ^238 Pu
same,238Pu in soft tissue at 24 h,[2],4.5 ± 1.4% of injected ^238 Pu
same,238Pu in whole body at 24 h,[2],45 ± 2.5% of injected ^238 Pu
"Cn1ccc(C(=O)NCCCNC(=O)c2ccn(C)c(=O)c2O)c(O)c1=O [3-LI-Me-3,2-HOPO, 1,3-bis[(3-hydroxy-1-methyl-2-oxo-1,2-dihydropyridin-4-yl)carboxamido] propane]",toxicity / mortality (in words),"[3]; mouse, in vivo",all mice were dead by d 3
same,no. of survivors,"[3]; protocol IA: 100 μmol/kg × 2 daily, 6 d, of 10 mice",0
same,body weight,[3]; [12],89 ± 4 percent control
same,kidney weight,[3]; [12],222 ± 29 percent control
same,plasma urea N,[3]; [12],> 1800 percent control
CCCCCCCCCCNC(=O)c1ccn(C)c(=O)c1O [Me-2-HOPO-Decylamide],% Pu(IV) Extracted,"[1]; MIBK, 0.10M aqueous, 1.0 min",98.2 ± 4.5%
same,Partition Coefficient,"[1]; MIBK, 0.10M aqueous, 1.0 min",53.63 ± 1.60
same,% Pu(IV) Extracted,"[1]; MIBK, 0.10M aqueous, 5.0 min",95.9 ± 4.4%
same,Partition Coefficient,"[1]; MIBK, 0.10M aqueous, 5.0 min",23.40 ± 1.14
same,% Pu(IV) Extracted,"[1]; MIBK, 0.10M aqueous, 10.0 min",97.7 ± 4.5%
same,Partition Coefficient,"[1]; MIBK, 0.10M aqueous, 10.0 min",42.43 ± 1.43
same,% Pu(IV) Extracted,"[1]; MIBK, 0.10M aqueous, 20.0 min",93.2 ± 4.3%
same,Partition Coefficient,"[1]; MIBK, 0.10M aqueous, 20.0 min",13.63 ± 0.82
same,% Pu(IV) Extracted,"[1]; MIBK, 5.0M aqueous, 1.0 min",97.9 ± 4.5%
same,Partition Coefficient,"[1]; MIBK, 5.0M aqueous, 1.0 min",46.00 ± 1.48
same,% Pu(IV) Extracted,"[1]; MIBK, 5.0M aqueous, 5.0 min",97.9 ± 4.5%
same,Partition Coefficient,"[1]; MIBK, 5.0M aqueous, 5.0 min",46.62 ± 1.43
same,% Pu(IV) Extracted,"[1]; MIBK, 5.0M aqueous, 10.0 min",95.8 ± 4.4%
same,Partition Coefficient,"[1]; MIBK, 5.0M aqueous, 10.0 min",22.87 ± 1.07
same,% Pu(IV) Extracted,"[1]; MIBK, 5.0M aqueous, 20.0 min",81.9 ± 3.8%
same,Partition Coefficient,"[1]; MIBK, 5.0M aqueous, 20.0 min",4.52 ± 0.35
same,% Pu(IV) Extracted,[1]; [4],68.9 ± 3.3%
same,Partition Coefficient,[1]; [4],2.22 ± 0.19
same,% Pu(IV) Extracted,[1]; [5],96.2 ± 4.5%
same,Partition Coefficient,[1]; [5],25.39 ± 1.12
same,% Pu(IV) Extracted,[1]; [6],95.2 ± 4.4%
same,Partition Coefficient,[1]; [6],19.71 ± 1.00
same,% Pu(IV) Extracted,[1]; [7],92.4 ± 4.3%
same,Partition Coefficient,[1]; [7],12.11 ± 0.75
same,% Pu(IV) Extracted,"[1]; octanol, 5.0M aqueous, 1.0 min",98.3 ± 4.6%
same,Partition Coefficient,"[1]; octanol, 5.0M aqueous, 1.0 min",56.64 ± 1.58
same,% Pu(IV) Extracted,"[1]; octanol, 5.0M aqueous, 5.0 min",96.4 ± 4.5%
same,Partition Coefficient,"[1]; octanol, 5.0M aqueous, 5.0 min",26.98 ± 1.13
same,% Pu(IV) Extracted,[1]; [8],93.6 ± 4.4%
same,Partition Coefficient,[1]; [8],14.74 ± 0.83
same,% Pu(IV) Extracted,[1]; [9],88.3 ± 4.1%
same,Partition Coefficient,[1]; [9],7.51 ± 0.53
"O=C(NCCCN(CCCCN(CCCNC(=O)c1cccc(=O)n1O)C(=O)c1cccc(=O)n1O)C(=O)c1cccc(=O)n1O)c1cccc(=O)n1O [3,4,3-LI(1,2-HOPO)]",238Pu excreta: feces and GI contents,[2],57% of injected ^238 Pu
same,238Pu excreta: urine 0-24 h,[2],23% of injected ^238 Pu
same,238Pu in kidneys at 24 h,[2],0.2% of injected ^238 Pu
same,238Pu in liver at 24 h,[2],8.9 ± 1.7% of injected ^238 Pu
same,238Pu in skeleton at 24 h,[2],7.5 ± 0.7% of injected ^238 Pu
same,238Pu in soft tissue at 24 h,[2],1.6 ± 0.6% of injected ^238 Pu
same,238Pu in whole body at 24 h,[2],18 ± 1.7% of injected ^238 Pu
"CC(=O)N(O)CCCCCNC(=O)CCC(=O)N(O)CCCCCNC(=O)CCC(=O)N(O)CCCCCNC(=O)c1cccc(=O)n1O [DFO-(1,2-HOPO)]",238Pu excreta: feces and GI contents,[2],46.7% of injected ^238 Pu
same,238Pu excreta: urine 0-24 h,[2],9.5% of injected ^238 Pu
same,238Pu in kidneys at 24 h,[2],0.1% of injected ^238 Pu
same,238Pu in liver at 24 h,[2],5.1 ± 2.2% of injected ^238 Pu
same,238Pu in skeleton at 24 h,[2],6.0 ± 0.5% of injected ^238 Pu
same,238Pu in soft tissue at 24 h,[2],2.3 ± 0.5% of injected ^238 Pu
same,238Pu in whole body at 24 h,[2],13 ± 2.9% of injected ^238 Pu
"Cn1ccc(C(=O)NCCN(CCNC(=O)c2ccn(C)c(=O)c2O)CCN(CCNC(=O)c2ccn(C)c(=O)c2O)CCNC(=O)c2ccn(C)c(=O)c2O)c(O)c1=O [H(2,2)-Me-3,2-HOPO, N,N,N',N'-tetrakis[(3-hydroxy-1-methyl-2-oxo-1,2-dihydropyridin-4-yl)carboxamido-ethyl]-ethylenediamine]",body weight,[3]; [13],92 ± 6 percent control
same,plasma urea N,[3]; [13],223 ± 28 percent control
same,no. of survivors,"[3]; protocol I: 100 μmol/kg × 10 daily i.p., 11 d, of 5 mice",5
same,body weight,[3]; [14],87 ± 9 percent control
same,plasma urea N,[3]; [14],225 ± 188 percent control
same,no. of survivors,"[3]; protocol I: 100 μmol/kg × 10 daily i.p., 21 d, of 5 mice",5
same,body weight,[3]; [15],94 ± 6 percent control
same,plasma urea N,[3]; [15],169 ± 10 percent control
same,no. of survivors,"[3]; protocol II: 500 μmol/kg × 2 in 8 h i.p., 8 d, of 19 (TREN) or 10 (H(2,2)) mice",3
